# Experimental data reported in publication PMC6582358, “Reversible ADP-ribosylation of RNA” (Nucleic Acids Research, 2019).
# Key:
# Assay type in all cases: biochemical
# PARP10 cat = biological target: T1, PARP10 cat (Homo sapiens, UniProt Q53GL7); assay: […]-NAD+ ADP-ribosylation of RNA, urea-PAGE autoradiography; conditions: acceptor 5'-phosphorylated ssRNA; 50 uM NAD+, 5 mM MgCl2, pH 7.6, 37 °C; labelled compound
# T1 construct: catalytic domain (818-1025), GST tag (pGEX-4T1), E. coli Rosetta DE3, gel filtration
# T1 sequence (Q53GL7 818-1025): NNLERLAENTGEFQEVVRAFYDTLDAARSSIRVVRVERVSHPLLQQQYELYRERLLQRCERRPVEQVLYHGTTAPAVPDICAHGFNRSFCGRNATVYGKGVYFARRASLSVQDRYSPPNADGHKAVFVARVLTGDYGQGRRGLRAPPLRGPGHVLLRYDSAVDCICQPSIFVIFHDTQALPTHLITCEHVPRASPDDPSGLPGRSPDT
# PARP3 FL = biological target: T2, PARP3 FL (Homo sapiens, UniProt Q9Y6F1); assay: […]-NAD+ ADP-ribosylation of DNA, urea-PAGE autoradiography; conditions: acceptor DNA ends; pH 7.6, 37 °C; labelled compound
# T2 construct: full length, His tag (pDEST17)
# T2 sequence (Q9Y6F1 1-533): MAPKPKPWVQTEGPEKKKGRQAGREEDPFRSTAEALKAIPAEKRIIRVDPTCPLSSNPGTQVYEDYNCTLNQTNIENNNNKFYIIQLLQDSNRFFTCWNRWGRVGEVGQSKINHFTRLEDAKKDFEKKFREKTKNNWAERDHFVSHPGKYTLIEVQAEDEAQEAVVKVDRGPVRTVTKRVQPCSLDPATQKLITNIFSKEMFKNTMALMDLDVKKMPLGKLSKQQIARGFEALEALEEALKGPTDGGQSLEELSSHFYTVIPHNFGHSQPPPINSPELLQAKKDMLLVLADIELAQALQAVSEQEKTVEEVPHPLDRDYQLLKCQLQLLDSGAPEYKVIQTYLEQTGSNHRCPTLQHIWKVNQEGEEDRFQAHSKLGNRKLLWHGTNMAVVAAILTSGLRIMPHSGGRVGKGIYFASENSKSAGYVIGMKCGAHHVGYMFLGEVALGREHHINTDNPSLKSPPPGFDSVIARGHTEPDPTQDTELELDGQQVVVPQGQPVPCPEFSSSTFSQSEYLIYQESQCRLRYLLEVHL
# TRPT1 = biological target: T3, TRPT1 (Homo sapiens, UniProt Q86TN4); assay: […]-NAD+ ADP-ribosylation of RNA, urea-PAGE autoradiography; conditions: acceptor 5'-phosphorylated ssRNA; 50 uM NAD+, 5 mM MgCl2, pH 7.6, 37 °C; labelled compound
# T3 construct: codon-optimised synthetic gene, His tag, pET28a, E. coli Rosetta DE3, Ni and gel filtration
# T3 sequence (Q86TN4 1-253): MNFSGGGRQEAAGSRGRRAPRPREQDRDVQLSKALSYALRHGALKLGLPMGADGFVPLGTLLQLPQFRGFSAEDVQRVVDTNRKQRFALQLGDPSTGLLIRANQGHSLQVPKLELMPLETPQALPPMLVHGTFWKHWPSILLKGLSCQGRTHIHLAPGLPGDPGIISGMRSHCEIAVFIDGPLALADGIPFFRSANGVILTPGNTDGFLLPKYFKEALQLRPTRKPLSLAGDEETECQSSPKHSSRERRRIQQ
# PARP10 FL = biological target: T4, PARP10 FL (Homo sapiens, UniProt Q53GL7); assay: as above; conditions: acceptor 5'-phosphorylated ssRNA; 50 uM NAD+, 5 mM MgCl2, pH 7.6, 37 °C; labelled compound
# T4 construct: full length, His6-SUMO-TEV vector, E. coli Rosetta DE3, Ni, heparin and gel filtration
# T4 sequence (Q53GL7 1-1025): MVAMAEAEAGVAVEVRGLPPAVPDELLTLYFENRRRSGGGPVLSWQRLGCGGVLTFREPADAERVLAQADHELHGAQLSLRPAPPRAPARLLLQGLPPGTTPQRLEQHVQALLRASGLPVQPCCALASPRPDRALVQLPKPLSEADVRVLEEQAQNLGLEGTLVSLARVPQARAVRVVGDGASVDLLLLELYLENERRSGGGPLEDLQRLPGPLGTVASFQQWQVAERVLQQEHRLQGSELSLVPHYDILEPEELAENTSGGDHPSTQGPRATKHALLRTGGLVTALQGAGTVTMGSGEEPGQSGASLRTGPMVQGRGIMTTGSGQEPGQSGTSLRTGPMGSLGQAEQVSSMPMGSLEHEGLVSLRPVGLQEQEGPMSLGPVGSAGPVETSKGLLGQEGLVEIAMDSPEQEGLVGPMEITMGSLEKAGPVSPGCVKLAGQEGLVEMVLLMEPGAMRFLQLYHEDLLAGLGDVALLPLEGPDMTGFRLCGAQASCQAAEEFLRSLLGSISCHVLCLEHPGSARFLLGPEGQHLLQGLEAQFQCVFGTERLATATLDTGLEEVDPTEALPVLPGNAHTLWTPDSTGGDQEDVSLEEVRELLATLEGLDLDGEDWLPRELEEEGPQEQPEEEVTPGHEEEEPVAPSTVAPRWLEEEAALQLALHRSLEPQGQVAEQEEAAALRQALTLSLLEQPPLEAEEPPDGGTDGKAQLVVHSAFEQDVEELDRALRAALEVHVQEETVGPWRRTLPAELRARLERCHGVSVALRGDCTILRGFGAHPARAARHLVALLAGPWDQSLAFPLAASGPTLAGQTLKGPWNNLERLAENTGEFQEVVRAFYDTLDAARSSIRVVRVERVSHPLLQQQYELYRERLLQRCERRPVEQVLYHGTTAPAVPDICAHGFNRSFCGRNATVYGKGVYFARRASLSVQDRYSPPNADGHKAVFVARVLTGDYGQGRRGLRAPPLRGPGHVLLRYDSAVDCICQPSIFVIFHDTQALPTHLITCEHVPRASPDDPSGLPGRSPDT
compound,measurement,setting,value
NC(=O)c1ccc[n+]([C@@H]2O[C@H](COP(=O)(O)OP(=O)(O)OC[C@H]3O[C@@H](n4cnc5c(N)ncnc54)[C@H](O)[C@@H]3O)[C@@H](O)[C@H]2O)c1 [NAD+],"32P-NAD+ ADP-ribosylation of RNA, urea-PAGE autoradiography",PARP10 cat,RNA ADP-ribosylation activity of PARP10 is time and NAD^+ concentration dependent
same,"32P-NAD+ ADP-ribosylation of DNA, urea-PAGE autoradiography",PARP3 FL,PARP3 could only ADP-ribosylate DNA ends
same,"32P-NAD+ ADP-ribosylation of RNA, urea-PAGE autoradiography",TRPT1,TRPT1 based RNA modification is time and NAD^+ concentration dependent
same,"32P-NAD+ ADP-ribosylation of RNA, urea-PAGE autoradiography",PARP10 FL,PARP10 full length can also ADP-ribosylate phosphorylated RNA ends
